In PMC5175340, “eIF2β is critical for eIF5-mediated GDP-dissociation inhibitor activity and translational control” (Nucleic Acids Research, 2016):
Blank lines part the entries; values can stand above or below the compound they belong to.

Assays:
sif285-1 GCN2 cells = assay: Growth on SD ±3AT media; assay type: cell-based, yeast; details: sif285-1 cells transformed with WT GCN2 plasmid
Method: Strains used and generated in this work are derivatives of S288c and are described in Supplementary Table S1. Cell growth was performed at 30°C in standard yeast rich (YPD), synthetic defined minimal (SD) or synthetic complete (SC) media lacking nutrients for plasmid selection. All media have 2% glucose as a carbon source ([25]). 3-Amino-1,2,4-triazole (3AT) (Fluka) was added where indicated. For serial dilution growth assays, cells were grown to A600 = 0.6, diluted to 0.1 and 2–3 μl of 10-fold dilutions were spotted on the agar surface. Plasmid shuffling to select for loss of URA3 plasmids employed 5-fluoro-orotic acid (5-FOA; Sigma-Aldrich), while loss of LEU2 plasmids relied on passive loss during unselected growth and subsequent screening. Mating type switching employed HO plasmid pAV1621 (pHO1.5) followed by 5-FOA, sporulation, tetrad dissection and mating type testing ([25]). gcd6Δ sui3Δ double deletion strains (GP7216-19) were made by polymerase chain reaction (PCR) amplifying gcd6Δ::KanMX cassette from a BY4743 gcd6Δ::KanMX/GCD6 diploid strain (GP4146) and transforming the DNA fragment into sui3Δ gcn2Δ [SUI3-Flag TRP1] [GCD6 URA3] strains to generate G418 resistant cells unable to lose the covering GCD6 plasmid upon 5-FOA selection.

HIS4-LacZ [1] = assay: β-galactosidase assay of HIS4-LacZ fusion; assay type: cell-based, yeast; details: sif285-1 cells bearing GCD6, 3AT treatment
Method: Measurement of β-galactosidase levels from a HIS4-LacZ fusion genomically-integrated at ura3-52 was performed exactly as described ([36]) using whole protein extracts from cells grown in SC medium lacking histidine and uracil or following addition of 10 mM 3AT for 6 h. Units are nmole o-nitrophenyl-β-D-galacto-pyranoside cleaved/min/μg total protein ± SE, n = 3.

HIS4-LacZ [2] = test system: HIS4-LacZ; parameters: method as in PMID 16153175; details: by GAAC via increased GCN4 translation in the presence of 3AT; cited from earlier work
[3] = target: eIF2^βE189K (V5-eIF2β-E189K, eIF2α, His6-eIF2γ), purified (S. cerevisiae) (UniProt P09064)
[4] = target: T1, eIF2 (β E189K), eIF2βE189K (Saccharomyces cerevisiae, UniProt P09064+P32481, E189K); assay: Steady-state fluorescence titration of 100 nM BODIPY-FL nucleotide with increasing apo-eIF2 (490 nm excitation, 509 nm emission) in 30 mM HEPES, 100 mM KCl, 10 mM MgCl2, pH 7.4, at room temperature, fitted to a single-site binding model.
T1 construct: purified apo-eIF2 heterotrimer; V5-sui3-E189K (N-terminal V5 tag on eIF2β), SUI2, His6-GCD11; nucleotide-free after EDTA dialysis
Method: (§1) To assay nucleotide affinity, fluorescence intensity of 100 nM of BODIPY-FL-GDP or BODIPY-FL-GTP (Thermo Fisher Scientific) in 180 μl of assay buffer (30 mM HEPES, 100 mM KCl, 10 mM MgCl2, pH 7.4) was measured using a Fluoromax-4 spectrophotometer (Horiba) (490 nm excitation, 509 nm emission). Yeast Met–tRNAi was assayed in a similar manner using 20 nM BOP-N-Met–tRNAi (tRNA probes) but with the addition of 1 mM GTP. Change in fluorescence intensity was measured upon addition of increasing amounts of apo–eIF2, incubating for 5 min at room temperature each time. Each measurement was blanked against a control without nucleotide to account for any affect of eIF2 and data were corrected for dilution effects caused by volume addition and normalized to starting values before being fitted to a single site binding model: y = 1 + [(ΔFmax - 1)*(x/(x + Kd))].
(§2) eIF2 was purified from yeast strains GP7145 and GP7146 expressing V5-sui3-E189K or the V5-SUI3 derivatives of eIF2β by sequential nickel affinity, HiTrap Heparin and HiTrap Q sepharose chromatography as described ([14]). To obtain apo–eIF2 free from nucleotide, eIF2 was dialysed with EDTA (30 mM HEPES, 100 mM KCl, 1 mM DTT, 1 mM EDTA, 10% glycerol, pH 7.4) then with magnesium (30 mM HEPES, 100 mM KCl, 1 mM DTT, 0.1 mM MgCl2, 10% glycerol, pH 7.4).
(§3) Figure 4. […] (A) Affinity (Kd) of GDP, GTP and Met–tRNAi to purified WT and mutant (β E189K) apo–eIF2 complexes measured by monitoring the fluorescence intensity of 100 nM BODIPY-FL-GDP (left), 100 nM BODIPY-FL-GTP (middle) or 20 nM BOP-N-Met–tRNAi with 1 mM GTP (right). […] K1/2 and Kmax values were determined from curve fitting y = [(Kmax × x)/(K1/2 + x)] + c. (C) Western blotting of IP of Flag-eIF2β, Flag-E189K and an untagged control from cells showing its co-association with known binding proteins. Quantification of at least three repeats using Li-Cor fluorescent secondary antibodies ±SE. […] Tif5 is indicated with an arrow, ‘♦’ marks a non-specific band.

eIF2 WT = target: T2, eIF2 WT (Saccharomyces cerevisiae, UniProt P32481); assay: as above
T2 construct: gene GCD11; purified apo-eIF2 heterotrimer; V5-SUI3 (N-terminal V5 tag on eIF2β), SUI2, His6-GCD11; nucleotide-free after EDTA dialysis
Method: as §1, §2, §3

[5] = GDP dissociation assay, intrinsic BODIPY-GDP off-rate; assay type: binding; details: 20 nM eIF2•BODIPY-GDP, 1 mM unlabelled GDP, 0 nM eIF2B
Method: (§4) Fluorescent eIF2•BODIPY-GDP binary complex was formed by incubating apo–eIF2 with a 2× excess of BODIPY-FL-GDP (Thermo Fisher Scientific) for 20 min at room temperature. Excess nucleotide was removed by passing through a G-50 sephadex column (GE Healthcare). Labelling efficiency was calculated to exceed 90%. […] K1/2 and Kmax values were determined from curve fitting y = [(Kmax × x)/(K1/2 + x)] + c.

Met–tRNAi = assay: Steady state fluorescence, BOP-N-Met-tRNAi binding to apo-eIF2; parameters: species or system Yeast; details: 20 nM BOP-N-Met-tRNAi with 1 mM GTP, purified apo-eIF2
Method: as §1

eIF5 = eIF5 GDI activity, BODIPY-GDP release with GST-eIF5; assay type: biochemical, yeast; details: eIF2•BODIPY-GDP 20 nM, purified eIF5 0–80 nM
Method: as §4
We therefore decided to assess eIF5 GDI activity directly. We monitored eIF5 GDI activity by incubating eIF2•BODIPY-GDP (20 nM) with purified eIF5 (0–80 nM) and recorded the fluorescence change upon dissociation of BODIPY-GDP from eIF2.

T2 sequence (P32481 whole entry): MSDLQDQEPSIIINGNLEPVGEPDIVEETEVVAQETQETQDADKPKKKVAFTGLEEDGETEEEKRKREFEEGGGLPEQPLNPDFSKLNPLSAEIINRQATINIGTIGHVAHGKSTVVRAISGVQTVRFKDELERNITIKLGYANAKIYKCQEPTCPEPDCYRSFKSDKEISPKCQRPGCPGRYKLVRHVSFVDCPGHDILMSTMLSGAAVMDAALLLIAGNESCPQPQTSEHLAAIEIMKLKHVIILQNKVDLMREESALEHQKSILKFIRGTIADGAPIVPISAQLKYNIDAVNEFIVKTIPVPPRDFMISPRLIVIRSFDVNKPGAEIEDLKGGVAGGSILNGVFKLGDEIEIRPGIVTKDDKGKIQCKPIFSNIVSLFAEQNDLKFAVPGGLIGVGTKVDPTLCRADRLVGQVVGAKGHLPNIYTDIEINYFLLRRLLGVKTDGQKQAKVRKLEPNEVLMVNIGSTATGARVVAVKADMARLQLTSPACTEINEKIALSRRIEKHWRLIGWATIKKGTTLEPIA
T2 sequence (P20459 whole entry partner): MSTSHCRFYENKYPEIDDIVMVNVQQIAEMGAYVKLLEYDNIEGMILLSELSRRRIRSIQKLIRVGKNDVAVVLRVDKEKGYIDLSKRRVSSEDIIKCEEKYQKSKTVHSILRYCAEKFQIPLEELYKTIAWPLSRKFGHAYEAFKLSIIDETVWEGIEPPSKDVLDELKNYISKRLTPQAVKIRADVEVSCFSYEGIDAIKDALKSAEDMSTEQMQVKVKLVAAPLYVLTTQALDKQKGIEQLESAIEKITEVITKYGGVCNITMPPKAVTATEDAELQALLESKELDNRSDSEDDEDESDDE
T2 sequence (P09064 whole entry partner): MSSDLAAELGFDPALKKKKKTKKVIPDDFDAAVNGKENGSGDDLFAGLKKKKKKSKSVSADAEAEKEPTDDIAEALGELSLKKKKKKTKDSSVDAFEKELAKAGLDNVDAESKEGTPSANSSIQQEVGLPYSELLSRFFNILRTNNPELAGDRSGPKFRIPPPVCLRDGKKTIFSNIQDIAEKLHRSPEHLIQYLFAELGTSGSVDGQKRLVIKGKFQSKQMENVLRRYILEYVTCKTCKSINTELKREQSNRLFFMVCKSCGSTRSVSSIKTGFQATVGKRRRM
T1 sequence (P09064 whole entry E189K): as the sequence (P09064 whole entry partner) above, with E189K counted along it
T1 sequence (P32481 whole entry): as the sequence (P32481 whole entry) above
T1 sequence (P20459 whole entry, stated change not applied, further chain): as the sequence (P20459 whole entry partner) above
eIF5, sequence (P38431 whole entry): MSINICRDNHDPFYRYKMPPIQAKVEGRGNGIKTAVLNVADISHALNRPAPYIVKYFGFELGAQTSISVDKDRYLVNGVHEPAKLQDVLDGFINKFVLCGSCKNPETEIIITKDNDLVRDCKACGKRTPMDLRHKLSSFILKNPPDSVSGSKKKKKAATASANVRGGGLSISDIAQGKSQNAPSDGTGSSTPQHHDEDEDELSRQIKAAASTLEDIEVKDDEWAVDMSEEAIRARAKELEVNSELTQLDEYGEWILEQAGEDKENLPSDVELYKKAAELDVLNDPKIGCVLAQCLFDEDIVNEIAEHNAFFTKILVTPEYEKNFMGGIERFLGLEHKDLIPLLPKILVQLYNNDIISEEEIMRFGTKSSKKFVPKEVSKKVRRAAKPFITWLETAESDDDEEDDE
eIF5, sequence (P32481 whole entry, further chain): as the sequence (P32481 whole entry) above
eIF5, sequence (P20459 whole entry, further chain): as the sequence (P20459 whole entry partner) above
eIF2^βE189K (V5-eIF2β-E189K, eIF2α, His6-eIF2γ), purified (S. cerevisiae), sequence (P09064 whole entry E189K, chain 1 of 3): as the sequence (P09064 whole entry partner) above, with E189K counted along it
eIF2^βE189K (V5-eIF2β-E189K, eIF2α, His6-eIF2γ), purified (S. cerevisiae), sequence (chain, as listed by the source E189K E189K, chain 2 of 3): as the sequence (P20459 whole entry partner) above
eIF2^βE189K (V5-eIF2β-E189K, eIF2α, His6-eIF2γ), purified (S. cerevisiae), sequence (chain, as listed by the source E189K E189K, chain 3 of 3): as the sequence (P32481 whole entry) above

Compound: Nc1nc[nH]n1 [3AT, 3-Amino-1,2,4-triazole]
cell growth (sif285-1 GCN2 cells): impaired | HIS4-LacZ expression (HIS4-LacZ [1]): not derepressed | HIS4 transcription derepression (HIS4-LacZ [2]): ~2 fold

K1/2 of eIF2B for GEF-promoted release of BODIPY-FL-GDP from purified eIF2•BODIPY-GDP (20 nM), room temperature [3]: 92.6 nM
Compound: eIF2B, P14741 1-305; P32502 1-381; P09032 1-578; P12754 1-651; P32501 1-712

Compound: Cc1cc(C)n2c1C=C1C=CC(CCC(=O)NCCNC(=O)OC3C(COP(=O)(O)OP(=O)(O)OP(=O)(O)O)OC(n4cnc5c(=O)[nH]c(N)nc54)C3O)=[N+]1[B-]2(F)F (centres unmarked) [BODIPY-FL-GTP, guanosine 5'-triphosphate, BODIPY FL 2'-(or-3')-O-(N-(2-aminoethyl)urethane)]
Kd [4]: 32 nM | Kd (eIF2 WT): 35.2 nM

Compound: Cc1cc(C)n2c1C=C1C=CC(CCC(=O)NCCNC(=O)OC3C(COP(=O)(O)OP(=O)(O)O)OC(n4cnc5c(=O)[nH]c(N)nc54)C3O)=[N+]1[B-]2(F)F (centres unmarked) [BODIPY-FL-GDP, guanosine 5'-diphosphate, BODIPY FL 2'-(or-3')-O-(N-(2-aminoethyl)urethane)]
Kd [4]: 19.3 nM | Kd (eIF2 WT): 19.1 nM

Compound: eIF2 WT: Wild-type yeast translation initiation factor eIF2 complex purified from an overexpression yeast strain (V5-SUI3)
Koff BODIPY-GDP [5]: 0.00487 ± 0.000417 s⁻¹ | Kd (Met–tRNAi): 2.8 nM | stabilization of GDP binding by eIF5 (GDI activity) (eIF5): stabilized by eIF5
